Assay [1] has as its target T1, SIRT3 (Homo sapiens, UniProt Q9NTG7).
T1 construct: amino acid residues 102-399 of human SIRT3 with an N-terminal His-tag; His-tag (N); made in house; host or cells: E. coli
T1 sequence (Q9NTG7 102-399): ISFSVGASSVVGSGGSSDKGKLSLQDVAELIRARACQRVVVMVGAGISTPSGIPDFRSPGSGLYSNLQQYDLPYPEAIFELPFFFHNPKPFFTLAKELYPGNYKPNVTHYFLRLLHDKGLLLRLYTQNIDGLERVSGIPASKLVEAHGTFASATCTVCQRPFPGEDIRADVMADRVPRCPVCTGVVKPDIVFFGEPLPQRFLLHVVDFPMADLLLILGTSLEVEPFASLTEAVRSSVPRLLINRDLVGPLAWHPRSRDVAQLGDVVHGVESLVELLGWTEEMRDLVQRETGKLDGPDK
The assay is described as follows: Fluorescence polarization assay, SIRT3 deacetylation of Histone H4-based peptide substrate. In kind it is biochemical. From the text: A fluorescence polarization assay was used to identify modulators of SIRT3 activity. The same assay may be used to identify modulators of any sirtuin protein. The assay utilizes a peptide substrate based on a fragment of Histone H4, a known sirtuin deacetylation target. […] The peptide is labeled with the fluorophore MR121 (excitation 635 nm/emission 680 nm) at the C-terminus and biotin at the N-terminus.
The peptide substrate is exposed to a sirtuin protein in the presence of NAD^+ to allow deacetylation of the substrate and render it sensitive to cleavage by trypsin. Trypsin is then added and the reaction is carried to completion (i.e., the deacetylated substrate is cleaved) releasing the MR121 fragment. Streptavidin is then added to the reaction where it can bind both the uncleaved substrate (i.e., any remaining acetylated substrate) and the non-fluorescent portion of the cleaved peptide substrate (i.e., the biotin containing fragment). The fluorescence polarization signal observed for the full length peptide substrate bound to streptavidin is higher than the fluorescence polarization signal observed for the released MR121 C-terminal fragment. Therefore, the fluorescence polarization obtained is inversely proportional to the level of deacetylation (e.g., the signal is inversely proportional to the activity of the sirtuin protein). Results are read on a microplate fluorescence polarization reader (Molecular Devices Spectramax MD) with appropriate excitation and emission filters.
The fluorescence polarization assays may be conducted as follows: 0.5 μM peptide substrate and 50 μM βNAD^+ is incubated with 2 nM of SIRT3 for 60 minutes at 37° C. in a reaction buffer (25 mM Tris-acetate pH8, 137 mM Na—Ac, 2.7 mM K—Ac, 1 mM Mg—Ac, 0.1% Pluronic F127, 10 mM CaCl2, 1 mM TCEP, 0.025% BSA). Test compounds are solubilized in DMSO and are added to the reaction at 11 concentrations ranging from 0.7 μM to 100 μM. The SIRT3 protein used in the assays corresponded to amino acid residues 102-399 of human SIRT3 with an N-terminal His-tag. The protein was overexpressed in E. coli and purified on a nickel chelate column using standard techniques. After the 60 minute incubation with SIRT3, nicotinamide is added to the reaction to a final concentration of 3 mM to stop the deacetylation reaction and 0.5 μg/mL of trypsin is added to cleave the deacetylated substrate. The reaction is incubated for 30 minutes at 37° C. in the presence of 1 mM streptavidin. Fluorescent polarization is determined at excitation (650 nm) and emissions (680 nm) wavelengths. The level of activity of the sirtuin protein in the presence of the various concentrations of test compound are then determined and may be compared to the level of activity of the sirtuin protein in the absence of the test compound, and/or the level of activity of the sirtuin proteins in the negative control (e.g., level of inhibition) and positive control (e.g., level of activation) described below.
A control for activation of sirtuin activity is conducted using 0.5 μg/mL of sirtuin protein to reach baseline deacetylation of the substrate (e.g., to determine normalized sirtuin activity).
On the technique in general: Polarisation of emitted light reports the rotation of a fluorescent probe.

The target of assay [2] is T2, SIRT1 (Homo sapiens, UniProt Q96EB6).
T2 sequence (Q96EB6 1-747): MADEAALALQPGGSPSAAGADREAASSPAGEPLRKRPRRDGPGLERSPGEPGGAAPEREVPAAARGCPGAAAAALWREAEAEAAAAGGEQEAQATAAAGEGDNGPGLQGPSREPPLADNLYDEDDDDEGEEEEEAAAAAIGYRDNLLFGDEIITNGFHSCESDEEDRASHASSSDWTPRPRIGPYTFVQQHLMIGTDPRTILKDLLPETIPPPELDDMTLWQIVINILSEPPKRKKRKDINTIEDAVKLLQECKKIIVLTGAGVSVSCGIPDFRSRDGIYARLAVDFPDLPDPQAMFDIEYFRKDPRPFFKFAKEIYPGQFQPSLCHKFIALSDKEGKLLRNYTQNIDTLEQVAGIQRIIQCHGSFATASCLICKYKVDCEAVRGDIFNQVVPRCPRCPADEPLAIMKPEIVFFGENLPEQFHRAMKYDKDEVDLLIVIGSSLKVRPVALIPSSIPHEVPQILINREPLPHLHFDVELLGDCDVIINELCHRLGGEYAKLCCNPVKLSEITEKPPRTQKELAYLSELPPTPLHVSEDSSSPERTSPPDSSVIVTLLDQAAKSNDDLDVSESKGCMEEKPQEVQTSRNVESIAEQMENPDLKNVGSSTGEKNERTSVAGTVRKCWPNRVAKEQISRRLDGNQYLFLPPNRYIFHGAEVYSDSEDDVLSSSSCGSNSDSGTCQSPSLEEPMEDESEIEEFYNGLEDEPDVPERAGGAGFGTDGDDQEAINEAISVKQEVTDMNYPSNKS
The assay is described as follows: Fluorescence polarization assay, SIRT1 deacetylation of p53-based peptide substrate. The note with it: for EC50: activation of SIRT1, compounds 1-18 with peptide 1 (MR121), compounds 19-56 with peptide 2 (5TMR), read-out: ED50 (the source's name); for IC50: inhibition of SIRT1. Format: biochemical.

Assay [3] addresses T2, SIRT1. The settings on record: Sirt1, nicotinamide release, cited from earlier work.
Assay [4] deals with T3, Sirt3 (Homo sapiens, UniProt Q9NTG7).
T3 sequence (Q9NTG7 1-399): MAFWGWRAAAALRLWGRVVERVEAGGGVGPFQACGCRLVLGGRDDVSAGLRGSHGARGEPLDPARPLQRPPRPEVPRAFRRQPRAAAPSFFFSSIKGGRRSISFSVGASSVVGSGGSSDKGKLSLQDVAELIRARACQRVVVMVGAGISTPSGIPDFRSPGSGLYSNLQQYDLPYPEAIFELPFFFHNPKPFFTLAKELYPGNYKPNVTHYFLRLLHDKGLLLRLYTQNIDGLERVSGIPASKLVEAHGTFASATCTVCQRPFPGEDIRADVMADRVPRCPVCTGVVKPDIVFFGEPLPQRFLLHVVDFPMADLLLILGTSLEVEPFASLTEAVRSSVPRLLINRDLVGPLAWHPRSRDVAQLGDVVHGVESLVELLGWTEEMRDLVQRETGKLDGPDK
The note with it: Sirt3, Biomol Fluor de Lys product literature, cited from earlier work.

The target in another assay is T4, Sirt2 (Homo sapiens, UniProt Q8IXJ6).
T4 sequence (Q8IXJ6 1-389): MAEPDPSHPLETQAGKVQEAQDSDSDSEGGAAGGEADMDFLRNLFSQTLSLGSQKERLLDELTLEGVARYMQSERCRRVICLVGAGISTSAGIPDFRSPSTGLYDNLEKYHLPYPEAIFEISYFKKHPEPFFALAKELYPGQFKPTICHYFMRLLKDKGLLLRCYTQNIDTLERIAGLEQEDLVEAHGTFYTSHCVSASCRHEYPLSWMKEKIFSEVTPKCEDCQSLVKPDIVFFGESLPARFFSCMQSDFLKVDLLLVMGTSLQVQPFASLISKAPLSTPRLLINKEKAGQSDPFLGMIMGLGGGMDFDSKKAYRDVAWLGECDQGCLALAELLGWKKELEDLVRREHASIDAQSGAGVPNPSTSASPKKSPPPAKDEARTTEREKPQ
The note with it: Sirt2, Biomol Fluor de Lys product literature, cited from earlier work.

The target in assay [5] is T2, SIRT1. The settings on record: Sirt1, Biomol Fluor de Lys product literature, cited from earlier work.
[6] abbreviates: read-out: ED50 (the source's name).
[7] abbreviates: Km of NAD with the named peptide substrate, read-out: NAD Km.
Where [8] appears, read: Km of NAD with the named peptide substrate, Kaeberlein et al., read-out: NAD Km.
The mark [9] stands for this setting: Kaeberlein et al., read-out: Peptide Km.

Like-named read-outs stand apart in the source and are kept apart here. No end group written: not given here.

One may read the IC50 as the midpoint of a concentration-inhibition curve. Higher therefore signals a need for much substance. As a reminder, the Km is the substrate concentration at which the rate is half of its maximum.

`O=C(NCc1ccncc1)c1cc(-c2ccsc2)nc2ccccc12` [Compound 1]: the EC50 on SIRT3 [1] (setting [6]) was 51 to 100 µM.
In the case of `O=C(NNc1c2ccccc2nc2ccccc12)c1ccccn1` [Compound 2], at SIRT1 [2], the EC50 lay within 51 to 100 µM.
The same measure, in the same setting: next, `O=C(NCCN1CCOCC1)c1cc(-c2cccs2)nc2ccccc12` [Compound 5]: 101 to 150 µM; `O=C(NCCN1CCOCC1)c1cc(-c2cccs2)nc2ccc(F)cc12` [Compound 7]: 101 to 150 µM.
As to `O=C(NNc1c2ccccc2nc2ccccc12)c1cccnc1` [Compound 11], the EC50 at SIRT3 [1] (setting [6]) was 51 to 100 µM.
As to `Cc1ccc2nc(-c3ccccc3)cc(C(=O)NCCN3CCOCC3)c2c1` [Compound 12], at SIRT1 [2], the EC50 was 51 to 100 µM.
As to `FC(F)(F)c1ccnc(NNc2c3ccccc3nc3ccccc23)n1` [Compound 33], the EC50 at SIRT1 [2] is 101 to 150 µM.
Take `Cc1ccc2nc(-c3ccco3)cc(C(=O)NCCCCN3CCOCC3)c2c1` [Compound 72]: the IC50 against SIRT1 [2] is greater than 150 µM.
For `O=C(NNc1c2c(nc3ccccc13)CCCC2)c1ccccn1` [Compound 73], the IC50 on SIRT1 [2] was less than 50 µM.
`Cc1cc(C)nc(Nc2c3ccccc3nc3ccccc23)c1` [Compound 74]: the IC50 on SIRT1 [2] was greater than 150 µM.
Regarding `COc1cc(C(=O)NNC(=O)c2c3ccccc3nc3ccccc23)cc(OC)c1OC` [Compound 75], the IC50 on SIRT1 [2] was less than 50 µM.
Turning to `Cc1nc(-c2cccc(NC(=O)c3c4ccccc4nc4ccccc34)c2)cs1` [Compound 76], on SIRT1 [2], the IC50 is greater than 150 µM.
`COc1ccccc1NC(=O)Nc1c2c(nc3ccccc13)CCCC2` [Compound 77] showed a half-inhibitory concentration (IC50) against SIRT1 [2] greater than 150 µM.
`COc1cc(NC(=O)Nc2c3c(nc4ccccc24)CCCC3)cc(OC)c1OC` [Compound 78] yielded an IC50 on SIRT1 [2] of 101 to 150 µM.
The same measure, in the same setting: with `O=C(Nc1ccccc1)c1c2c(nc3ccccc13)-c1ccccc1CC2` [Compound 79] the figure was greater than 150 µM.
`O=C(O)c1c(O)c(-c2ccccc2)nc2ccccc12` [Compound 80]: the EC50 at SIRT3 [1] (setting [6]) was in the range of 51 to 100 µM.
As to `CC(=O)Nc1ccc(Nc2cc(C)nc3c(C)cccc23)cc1` [Compound 81], the IC50 against SIRT3 [1] was 101 to 150 µM.
`Oc1ccc(C=Cc2cc(O)cc(O)c2)cc1` [resveratrol, reference compound]: the EC50 on SIRT3 [1] (activation of SIRT3, read-out: ED50 for activation of SIRT3) is greater than 300 µM.
With “p53 19 mer (aa 368-386) no FL: p53 19 mer (aa 368-386) peptide substrate without fluorescent label, McDonagh et al. (HLKSKKGQSTSRHKKLMFK; UniProt P04637 368-386, looked up, fragment)”, the Km in the assay with SIRT1 [3] (Km of NAD with the named peptide substrate, McDonagh et al., read-out: NAD Km) is 133 µM; with SIRT1 [3] (McDonagh et al., read-out: Peptide Km) it was 10.3 µM.
For “p53 (aa 317-320) *FL: p53 (aa 317-320) peptide substrate with fluorescent label, Biomol Fluor de Lys SIRT2 and SIRT3 kits (QPKK; also: fluorescent label; UniProt P04637 317-320, looked up, fragment)”, the Km was 2030 µM in the assay with Sirt3 [4] (setting [7]), 32 µM with Sirt3 [4] (read-out: Peptide Km), 547 µM in the assay with Sirt2 (setting [7]) and 186 µM with Sirt2 (read-out: Peptide Km).
For the molecule “p53 (aa 368-386) *FL: p53 (aa 368-386) peptide substrate with fluorescent label, Kaeberlein et al. (HLKSKKGQSTSRHKKLMFK; also: fluorescent label; UniProt P04637 368-386, looked up, fragment)”, the Km with SIRT1 [3] (setting [8]) is 192 µM; in the assay with SIRT1 [3] (setting [9]), 87.6 µM.
Regarding “p53 (aa 368-386) no FL: p53 (aa 368-386) peptide substrate without fluorescent label, Kaeberlein et al. (HLKSKKGQSTSRHKKLMFK; UniProt P04637 368-386, looked up, fragment)”, the Km in the assay with SIRT1 [3] (setting [8]) is 132 µM; with SIRT1 [3] (setting [9]) it was 10.3 µM.
As to “p53 (aa 379-382) *FL: p53 (aa 379-382) peptide substrate with fluorescent label, Biomol Fluor de Lys SIRT1 kit (RHKK; also: fluorescent label; UniProt P04637 379-382, looked up, fragment)”, the values for the Michaelis-Menten constant (Km) in the assay with SIRT1 [5] (setting [7]) and in the assay with SIRT1 [5] (read-out: Peptide Km) were 558 µM and 64 µM, respectively.

These data come from patent US20080293081A1, “Fluorescence Polarization Assays for Acetyltransferase/Deacetylase Activity” (Sirtris Pharmaceuticals, Inc., priority 2005, published 2008).
